Test results reported in patent US3958011A, “Compositions of tri-n-propylacetic acid and salts thereof and treatment of neurological disorders with such compositions” (priority 1972, dated 1976).

Columns and labels:
mice [1] = test: Pentylenetetrazol-induced seizure (anticonvulsant action); format: in vivo, mice (OF 1); settings: Mus musculus, ip, i.p., 125 mg/kg pentylenetetrazol i.p.
Protocol: The purpose of this test which is carried out on mice is to determine whether the compounds of the invention, when given preventively by intraperitoneal route, are capable at certain doses of protecting some of the animals against the epileptic seizure produced by an adequate and predetermined dose of pentylenetetrazol which would be 100% fatal in the absence of the compound. The test was carried out on batches of 10 male OF 1 mice weighing about 25 g.

rats = test: Anoxic seizure induced by gallamine triiodoethylate (antianoxic properties); format: in vivo, rats (OFA); settings: 2 millimols/kg
From the text: The injection of a sufficient dose of a synthetic curariform substance such as gallamine triiodoethylate provokes in the rat paralysis of the diaphragm. The animal then dies by asphyxia.
Male rats of the OFA strain and weighing about 250 g. were first anesthetized with ether in order to enable tracheotomy to be performed and cortical electrodes to be inserted. Each rat was then maintained under conditions of artificial respiration by means of an appropriate apparatus and a paralysing dose of gallamine triiodoethylate was administered by intraperitoneal route to eliminate spontaneous breathing. The electrocorticogram, the electrocardiogram and the rectal temperature were registered. After a period of 30 minutes during which stabilization of the registrations was obtained the animal was treated with 2 millimols/kg of an oily solution of tri-n-propylacetic acid or an aqueous solution of one of its alkali metal salts. The artificial respiratory apparatus was stopped 5 minutes after treatment and note was taken of the cardiac frequency every 10 seconds as well as of the period of time between the stopping of the apparatus and the appearance of the flat tracing on the electrocorticogram. This period of time represents the period of survival of the animal. The value of the cardiac frequency corresponding to moment of appearance of the flat tracing was calculated by extrapolation.
The same test was performed on control animals but without administration of a compound of the invention.

mice [2] = test: Hole-board test (tranquillizing properties); format: in vivo, mice (OF 1); settings: for Total number of holes explored: batch of 10
Protocol: This test enables a quantitative evaluation to be made of the exploring capabilities of mice in relation to their curiosity. The material comprises a board 40 cm × 40 cm and 1.7 cm thick in which 16 holes, 3 cm in diameter, have been cut. The board is placed upon four legs sufficiently high (1.5 m) for the holes to appear bottomless to the animals. The experiment is carried out in as great a silence as possible.
The test was performed on batches of 10 male OF 1 mice weighing about 23 g. The animals of each batch were given an intraperitoneal dose of the compound to be tested so that each batch received a higher dose than the preceding batch. […] Thirty minutes after administration, each batch was placed in the middle of the board and the total number of holes explored by each batch was noted every minute for 5 minutes.

mice [3] = test: Chimney test (tranquillizing properties); format: in vivo; settings: Mus musculus, ip; 50% failed to get out of the test-tube within 30 seconds
Protocol: This test enables two groups of factors to be evaluated namely neuromuscular factors (muscular strength, agility, coordination of movements) and psychological factors (curiosity, fright, flight instinct).
It was carried out on batches of 10 mice weighing about 25 g each. The compound to be studied was given to each batch by intraperitoneal route so that each batch received a higher dose than the preceding batch. The mice were placed, one after another, head first in a test-tube 30 cm long and calibrated in accordance with the size of the mouse so that by moving backwards the animal could get out of the tube in less than 30 seconds. The number of animals which were unable to do this was noted.

## CCCC(CCC)(CCC)C(=O)[O-].[Na+] [Sodium tri-n-propylacetate, sodium tri-n-propylacetate]
Mice [1]; 0.125 h, 7 min. 30 sec after administration
  ED50: 78 mg/kg
Mice [1]; 0.25 h, 15 min. after administration
  ED50: 66 mg/kg
Mice [1]; 0.5 h, 30 min. after administration
  ED50: 110 mg/kg
rats
  Increase of period of survival versus controls: 19%
rats; controls 74.3 ± 2.3
  Period of survival: 87.9 ± 3.7 s
rats; controls 150, calculated by extrapolation
  Cardiac frequency when the flat tracing appears: 109
Mice [2]; 50 mg/kg i.p., 1 min.
  Total number of holes explored: 15
Mice [2]; 50 mg/kg i.p., 2 min.
  Total number of holes explored: 13
Mice [2]; 50 mg/kg i.p., 3 min.
  Total number of holes explored: 14
Mice [2]; 50 mg/kg i.p., 4 min.
  Total number of holes explored: 19
Mice [2]; 50 mg/kg i.p., 5 min.
  Total number of holes explored: 17
Mice [2]; 75 mg/kg i.p., 1 min.
  Total number of holes explored: 2
Mice [2]; 75 mg/kg i.p., 2 min.
  Total number of holes explored: 6
Mice [2]; 75 mg/kg i.p., 3 min.
  Total number of holes explored: 3
Mice [2]; 75 mg/kg i.p., 4 min.
  Total number of holes explored: 1
Mice [2]; 75 mg/kg i.p., 5 min.
  Total number of holes explored: 7
Mice [2]; hole-board test, in words
  Effect on the animals' curiosity: tends to reduce the animals' curiosity
Mice [3]
  ED50: 72 mg/kg
